Patent publication US5135955A, “Propanamine derivatives” (Eli Lilly and Company, priority 1989, dated 1992)
Where a name gives a salt, the structure may show the parent alone.

Columns and labels:
[1] = system: thromboplastin clotting time in human plasma; test: prothrombin time test (thromboplastin clotting time in human plasma); format: biochemical; details: 37° C., human plasma
Method: Briefly, to 0.1 ml of each of human plasma, normal saline and thromboplastin was added 0.03 ml of the test compound of the present invention (2 mg/ml in 50 percent methanol). The clotting time was measured at 37° C. with a Fibrometer.
^a Expressed in seconds
^b Concentration of compound tested in micrograms per milliliter of […]

Candida albicans A26 = test: in vitro antifungal activity, Candida albicans (MIC); format: cell-based; details: 35° C., 48 hours, RPMI 1640 plus 10% fetal calf serum, 95-100% inhibition of growth, read-out: minimum inhibitory concentration (MIC), C.a.
Method: (§1) The antifungal activity was assayed in vitro against Candida abicans A26, Trichophyton mentagrophytes CDC27, and Aspergillus flavus M152. The inocula, previously frozen under liquid nitrogen in a lactose, glycerol and water solution, were standardized by counting spores with a hemocytometer. Final concentrations (C. albicans, 1×10^5 cells/m; T. mentagrophytes, 1×10^6 cells/ml; A. flavus, 1×10^5 cells/ml) in RPMI 1640 plus 10% fetal calf serum were added to each of the 96 wells of a microtiter plate (100 μl/well).The compounds to be tested were solubilized in either water or ethanol and added to the microtiter wells in serial dilutions to give final concentrations in the range 0.039-20 μg/ml. The plates were incubated at 35° C. for 48 hours. The minimum inhibitory concentration (MIC) values were determined as the highest dilution showing 95-100% inhibition of growth.
(§2) ^a Minimum inhibitory concentration expressed in μg/ml
^b C.a. means Candida albicans A26

Aspergillus flavus M152 = test: in vitro antifungal activity, Aspergillus flavus (MIC); format: cell-based; details: 35° C., 48 hours, RPMI 1640 plus 10% fetal calf serum, 95-100% inhibition of growth, read-out: minimum inhibitory concentration (MIC), A.f.
Method: as §1, §2
^c A.f. means Aspergillus flavus M152

[2] = system: Trichophyton mentagrophytes CDC27; test: in vitro antifungal activity, Trichophyton mentagrophytes (MIC); format: cell-based; details: 35° C., 48 hours, RPMI 1640 plus 10% fetal calf serum, 95-100% inhibition of growth, read-out: minimum inhibitory concentration (MIC), T.m.
Method: as §1, §2
^d T.m. means Trichophyton mentagrophytes CDC27

solubility in methanol = format: physicochemical
[3] = 22 micrograms per milliliter of plasma
[4] = 45 micrograms per milliliter of plasma
[5] = 90 micrograms per milliliter of plasma
[6] = 180 micrograms per milliliter of plasma

SMILES | MIC (Candida albicans A26) | MIC (Aspergillus flavus M152) | MIC [2] | solubility in methanol (solubility in methanol) | plasma prothrombin time [1, 3] | plasma prothrombin time [1, 4] | plasma prothrombin time [1, 5] | plasma prothrombin time [1, 6]
CCCCOc1ccc(CC(CN)c2ccccc2)cc1.Cl (stereo not drawn) [Example 6, 4-(Butyloxy)-β-phenylbenzenepropanamine hydrochloride] | 10 µg/mL | 5 µg/mL | 5 µg/mL |  | 20 s | 26 s | 46 s | 83 s
CCCCOc1ccc(CCC(C)N(C)C)cc1 (stereo not drawn) [Example 41, 4-Butoxy-N,N,α-trimethylbenzenepropanamine hydrochloride] | 0.156 µg/mL | 1.25 µg/mL | 0.078 µg/mL |  |  | 21 s | 24 s | 41 s
CCCCCCOc1ccc(CC(CN)c2ccc(F)cc2)cc1 (stereo not drawn) [Example 26, 4(Hexyloxy)-β-(4-fluorophenyl)benzenepropanamine] | 10 µg/mL | 5 µg/mL | 10 µg/mL |  |  | 29 s | 67 s | 500 s
CCCCCCCOc1ccc(CC(CN)c2ccc(OC)cc2)cc1 (stereo not drawn) [Example 21, 4-(Heptyloxy)-β-(4-methoxy)phenylbenzenepropanamine] |  |  |  | insoluble |  |  |  | 

More lines, in order of falling MIC (Candida albicans A26), values ahead:

MIC (Candida albicans A26) | MIC (Aspergillus flavus M152) | MIC [2] | solubility in methanol (solubility in methanol) | SMILES | plasma prothrombin time [1, 3] | plasma prothrombin time [1, 4] | plasma prothrombin time [1, 5] | plasma prothrombin time [1, 6]
20 µg/mL | 10 µg/mL | 20 µg/mL |  | CCCCCCCCOc1ccc(CC(CN)c2ccccc2)cc1 (stereo not drawn) [Example 2, 4-(Octyloxy)-β-phenylbenzenepropanamine] | 38 s | 79 s | > 300 s | > 300 s
20 µg/mL | 10 µg/mL | 10 µg/mL |  | CCCCCCOc1ccc(CC(CN)c2ccc(OC)c(OC)c2)cc1 (stereo not drawn) [Example 16, .varies.-(Hexyloxy)-β-(3,4-dimethoxy)phenylbenzenepropanamine hydrochloride] | 27 s | 57 s | 81 s | 235 s
10 µg/mL | 5 µg/mL | 5 µg/mL |  | CCCCCOc1ccc(CC(CN)c2ccccc2)cc1.Cl (stereo not drawn) [Example 4, 4-(Pentyloxy)-β-phenylbenzenepropanamine hydrochloride] |  | 37 s | 91 s | > 300 s
5 µg/mL | > 20 µg/mL | > 20 µg/mL |  | CC(CCc1ccc(OCCC2CCCCC2)cc1)NC1CCCC(C(F)(F)F)C1 (stereo not drawn) [Example 39, 4-(2-Cyclohexylethoxy)-α-methyl-N-[3-(trifluoromethyl)-cyclohexyl]benzenepropanamine hydrochloride] |  | 90 s |  | 
